Data taken from patent publication US8501713B2, “Drug combinations for the treatment of duchenne muscular dystrophy” (Summit Corporation PLC, priority 2007, dated 2013).
Where two headings read alike, the source gives them in different places.

Test system: Utrophin A promoter linked to a luciferase reporter gene
Experiment: Luciferase reporter assay (murine H2K cells)
Format: cell-based
Settings: for activity at 10 µM: Mus musculus, H2K mdx; for Activity: luciferase reporter assay in murine H2K cells, classified relative to control
Procedure, shortened: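 Compound at 10 μM final was applied for 48 hrs to plated H2K mdx myoblasts (33° C, 10% CO2, interferon-containing medium) bearing a luciferase gene under the utrophin A promoter. Luminescence from lysed cells served as read-out.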

[1] = luciferase level relative to control, H2K/mdx/Utro A reporter cells, compound 10 μM final concentration, read-out: Activity

Nc1ccc(-c2ccc3oc(-c4ccc(Cl)cc4)nc3c2)cn1 [Example 338, 5-(2-(4-chlorophenyl)benzo[d]oxazol-5-yl)pyridin-2-amine]
activity at 10 µM [1]: > 401%

CC(C)C(=O)Nc1ccc2oc(-c3ccc(F)cc3Cl)nc2c1 [Example 340, N-(2-(2-chloro-4-fluorophenyl)benzo[d]oxazol-5-yl)isobutyramide]
activity at 10 µM [1]: > 401%

Cc1ccc(-c2nc3cc(NC(=O)CC(F)(F)F)ccc3o2)cc1 [Example 254, 3,3,3-trifluoro-N-(2-p-tolylbenzo[d]oxazol-5-yl)propanamide]
activity at 10 µM [1]: 201 to 300%

CC(C)C(=O)Nc1ccc2oc(-c3cccc(Cl)c3Cl)nc2c1 [Example 273, N-(2-(2,3-dichlorophenyl)benzo[d]oxazol-5-yl)isobutyramide]
activity at 10 µM [1]: > 401%

CCS(=O)(=O)c1ccc2oc(-c3cccc4ccccc34)nc2c1 [Example 427, 5-(ethylsulfonyl)-2-(naphthalen-1-yl)benzo[d]oxazole]
activity at 10 µM [1]: < 200%

CCC(=O)Nc1ccc2oc(-c3ccc(C(F)(F)F)cc3)nc2c1 [Example 124, N-(2-(4-(trifluoromethyl)phenyl)benzo[d]oxazol-5-yl)propionamide]
activity at 10 µM [1]: < 200%

O=C(Nc1ccc2oc(-c3ccccc3)nc2c1)c1ccncc1 [Example 22, N-(2-phenylbenzo[d]oxazol-5-yl)isonicotinamide]
activity at 10 µM [1]: < 200%

Nc1c(C(=O)Nc2ccccc2F)sc2nc3c(cc12)CCC3 [Example 673]
Activity: ++ (Between 201% and 300% relative to control)

COc1cccc(-c2nc3ccccc3[nH]2)c1 [Example 600]
Activity: ++ (Between 201% and 300% relative to control)

Cc1cc(-c2nc3ccccc3[nH]2)ccc1[N+](=O)[O-] [Example 105, 2-(3-methyl-4-nitrophenyl)-1H-benzo[d]imidazole]
activity at 10 µM [1]: > 401%

COc1cccc(-c2ccc3oc(-c4ccc(Cl)cc4)nc3c2)n1 [Example 327, 2-(4-chlorophenyl)-5-(6-methoxypyridin-2-yl)benzo[d]oxazole]
activity at 10 µM [1]: < 200%

O=[N+]([O-])c1ccc2oc(SCc3ccc(Cl)cc3)nc2c1 [Example 379, 2-(4-chlorobenzylthio)-5-nitrobenzo[d]oxazole]
activity at 10 µM [1]: < 200%

CC(C)C(=O)Nc1ccc2oc(-c3ccc4cc(Br)ccc4c3)nc2c1 [Example 413, N-(2-(6-bromonaphthalen-2-yl)benzo[d]oxazol-5-yl)isobutyramide]
activity at 10 µM [1]: < 200%

CCC(=O)Nc1ccc2oc(-c3ccc(N(CC)CC)cc3)nc2c1 [Example 75, N-(2-(4-(diethylamino)phenyl)benzo[d]oxazol-5-yl)propionamide]
activity at 10 µM [1]: 201 to 300%

CCCCc1ccc(-c2nc3cc([N+](=O)[O-])ccc3o2)nc1 [Example 250, 2-(5-butylpyridin-2-yl)-5-nitrobenzo[d]oxazole]
activity at 10 µM [1]: < 200%

O=[N+]([O-])c1ccc2nc(-c3ccc(Cl)c(Cl)c3)oc2c1 [Example 324, 2-(3,4-dichlorophenyl)-6-nitrobenzo[d]oxazole]
activity at 10 µM [1]: 201 to 300%

COc1ccc(OCc2nc3ccccc3[nH]2)cc1 [Example 4, 2-((4-methoxyphenoxy)methyl)-1H-benzo[d]imidazole]
activity at 10 µM [1]: 201 to 300%

Nc1ccc2sc(-c3ccccc3)nc2c1 [Example 251, 2-phenylbenzo[d]thiazol-5-amine]
activity at 10 µM: 301 to 400%

COc1ccc(-c2nc3cc([N+](=O)[O-])ccc3[nH]2)cc1 [Example 586]
Activity: ++ (Between 201% and 300% relative to control)

Cc1ccc(-c2nc3ccccc3[nH]2)cc1NC(=O)C(F)(F)F [Example 568]
Activity: +++ (Between 301% and 400% relative to control)

Clc1ccc(-c2nc3ccccc3s2)c(Cl)c1 [Example 595]
Activity: ++ (Between 201% and 300% relative to control)

CS(=O)(=O)c1ccc(-c2nc3cc(Cl)ccc3o2)cc1 [Example 395, 5-chloro-2-(4-(methylsulfonyl)phenyl)benzo[d]oxazole]
activity at 10 µM [1]: 201 to 300%

O=C(Nc1nc2ccc(F)cc2s1)c1ccccc1Br [Example 629]
Activity: ++++ (Above 401% relative to control)

Cc1ccc(-c2nc3cc(Br)cnc3o2)cc1 [Example 212, 6-bromo-2-p-tolyloxazolo[5,4-b]pyridine]
activity at 10 µM [1]: 201 to 300%

CCN(CC)c1ccc(-c2nc3cc(NC(=O)C(C)C)ccc3o2)cc1 [Example 78, N-(2-(4-(diethylamino)phenyl)benzo[d]oxazol-5-yl)isobutyramide]
activity at 10 µM [1]: < 200%

CCS(=O)(=O)c1ccc2oc(-c3ccc4c(c3)OCO4)nc2c1 [Example 394, 2-(benzo[d][1,3]dioxol-5-yl)-5-(ethylsulfonyl)benzo[d]oxazole]
activity at 10 µM [1]: > 401%

CCCCC(=O)Nc1ccc2oc(-c3ccc(C)cc3)nc2c1 [Example 117, N-(2-p-tolylbenzo[d]oxazol-5-yl)pentanamide]
activity at 10 µM [1]: 301 to 400%

Nc1ccc2oc(-c3ccc(C(F)(F)F)cc3)nc2c1 [Example 15, 2-(4-(trifluoromethyl)phenyl)benzo[d]oxazol-5-amine]
activity at 10 µM [1]: < 200%

O=C(Nc1ccc2oc(-c3ccccc3)nc2c1)c1cc(Cl)cc(Cl)c1 [Example 30, 3,5-dichloro-N-(2-phenylbenzo[d]oxazol-5-yl)benzamide]
activity at 10 µM [1]: < 200%

O=[N+]([O-])c1cc2oc(-c3ccc(Cl)cc3)nc2cc1Cl [Example 326, 5-chloro-2-(4-chlorophenyl)-6-nitrobenzo[d]oxazole]
activity at 10 µM [1]: 301 to 400%

COc1ccc(-c2nc3ccccc3o2)cc1N [Example 619]
Activity: ++++ (Above 401% relative to control)

CCC(=O)Nc1ccc2oc(-c3ccccc3)nc2c1 [Example 9, N-(2-phenylbenzo[d]oxazol-5-yl)propionamide]
activity at 10 µM [1]: 201 to 300%

O=[N+]([O-])c1ccc(Cl)c(-c2nc3ccccc3s2)c1 [Example 524]
Activity: + (Up to 200% relative to control)

CCCS(=O)(=O)Nc1ccc2oc(-c3ccc(Cl)cc3)nc2c1 [Example 260, N-(2-(4-chlorophenyl)benzo[d]oxazol-5-yl)propane-1-sulfonamide]
activity at 10 µM [1]: < 200%

CC(C)C(=O)Nc1ccc2oc(-c3cccc(C(F)(F)F)c3Cl)nc2c1 [Example 368, N-(2-(2-chloro-3-(trifluoromethyl)phenyl)benzo[d]oxazol-5-yl)isobutyramide]
activity at 10 µM [1]: < 200%

CC(=O)Nc1cccc(-c2nc3ccccc3s2)c1 [Example 513]
Activity: + (Up to 200% relative to control)

Cc1ccc(-c2nc3cc(NC(=O)C(C)(C)C)ccc3o2)cc1 [Example 208, N-(2-p-tolylbenzo[d]oxazol-5-yl)pivalamide]
activity at 10 µM [1]: 201 to 300%

O=C(O)c1ccc2oc(-c3ccc4ccccc4c3)nc2c1 [Example 449, 2-(Naphthalen-2-yl)benzo[d]oxazole-5-carboxylic acid]
activity at 10 µM [1]: > 401%

O=C(Nc1ccc2oc(-c3ccc(Cl)c(Cl)c3)nc2c1)C1CC1 [Example 351, N-(2-(3,4-dichlorophenyl)benzo[d]oxazol-5-yl)cyclopropanecarboxamide]
activity at 10 µM [1]: > 401%

O=C(Nc1ccc(-c2nc3ccccc3s2)cc1)C1CC1 [Example 661]
Activity: +++ (Between 301% and 400% relative to control)

O=C(C=Cc1ccccc1)Nc1ccc2oc(-c3ccccc3)nc2c1 [Example 34, N-(2-phenylbenzo[d]oxazol-5-yl)cinnamamide]
activity at 10 µM [1]: < 200%
